Data: patent US11111267B2 (priority 2020, dated 2021)
“Also recorded” adds a separate entry of the source. Where two headings read alike, the source gives them in different places.

Tests used:
[1] = Pharmacokinetic study of jervine in mice; format: in vivo; settings: CD-1 mice, PO 10 mg/Kg
Protocol: Orally dosed: A total of 3 male experimental CD-1 mice, approximately 8 weeks of age at receipt was administered jervine via oral gavage at 10 mg/kg. Blood samples (300 μL) were collected via cardiac puncture predose and at 2 minute, 5 minute, 15 minute, 0.5 hour, 1 hour, 2 hour, 4 hour, 8 hour, 24 hours postdose. Plasma was made form the blood samples in order to measure the concentration of jervine.

[2] = MTD study of jervine; format: in vivo, BALB/c nude mice; settings: 14 days
Protocol: 9 BALB/c nude mice were divided equally into 3 groups. The mice were orally dosed at 50 mg/kg, 80 mg/kg and 150 mg/kg by groups. […] It was initially determined that the MTD is higher than 80 mg/kg for BALB/c nude mice.

[3] = tested on: Hedgehog signaling pathway; test: Gli luciferase reporter assay in Gli Reporter-NIH3T3 cells (mShh stimulated); format: cell-based; settings: mShh 1 μg/ml, 27 hours, read-out: IC50 for inhibition of the Hedgehog signaling pathway
Protocol: Hedgehog signaling pathway Gli Reporter-NIH3T3 cells were cultured in DMEM medium with 10% Calf serum, 1% Penn-strep, 500 μg/ml of Geneticin.
To perform the Gli luciferase reporter assay, Gli Reporter—NIH3T3 cells were seeded at 25,000 cells per well into white clear-bottom 96-well microplate in 100 μl of growth medium. Cells were incubated at 37° C. and 5% CO2 for overnight. Next day remove the medium from wells and add 45 μl of diluted inhibitor in assay medium (Opti-MEM Reduced Serum Medium+0.5% calf serum+1% non-essential amino acids+1 mM Na-pyruvate+10 mM HEPES+1% Pen/Strep) per well. Incubate cells at 37° C. in a CO2 incubator for 2 hours. Then add 5 μl of diluted mShh in assay medium to wells (final [mShh]=1 μg/ml). Add […] of assay medium to cell-free control wells. Cells were treated for 27 hours. […] Luminescence was measured using a luminometer (BioTek Synergy™ 2 microplate reader)
Reporter assays in triplicate were performed at each concentration. The luminescence intensity data were analyzed using the computer software, Graphpad Prism. In the absence of the compound, the luminescence intensity (Lt) in each data set was defined as 100%. In the absence of cells, the luminescence intensity (Lb) in each data set was defined as 0%. […]

[4] = tested on: A431 xenograft; format: in vivo, BALB/c nude mice
Protocol: (§1) NCI-H2122 cells were cultured in RMPI1640 medium, A431 tumor cells cultured in DMEM medium, all the medium were supplemented with 10% heat inactivated fetal bovine serum, all cells used EDTA containing trypsin, passaged twice a week, incubated at 37° C. in an atmosphere of 5% CO2 in air and cultured.
(§2) 110 BALB/c nude mice, female, 6-8 weeks old, 18-22 g in body weight, were purchased from Shanghai Laboratory Animal Center (SLAC, Shanghai, China). The mice were kept in individually ventilated cage (IVC) systems at constant temperature and humidity, with 20.5-24.5° C. for temperature, 40-75% for humidity. With 4 animals in each cage, the size ogf the cage is 325 mm×210 mm×180 mm. The bedding material is corn cob, which is changed twice per week. Animals had free access to irradiation sterilized dry granule food and water during the entire study period. The food and water were changed twice per week. The identification labels for each cage contain the following information: number of animals, sex, strain, and date received treatment, study number, group number, and the starting date of the treatment. Animals were marked by ear coding. The experiments started one week after receiving the animals.
(§3) Each mouse were inoculated subcutaneously at the right flank region with NCI-H2122 tumor cells (5×10^7/ml), NCI-H1703 tumor cells (1×10^8/ml) and A431 tumor cells (5×10^7/ml), respectively in a mixture of phosphate-buffered saline and matrigel for tumor development via a 1 ml syringe. The treatments were started when the mean tumor size reached about 200 (150-250) mm^3.
(§4) To avoid errors between groups, the animals were first grouped by the tumor volumes according to the tumor volume measurements, and then randomly re-assigned to different groups.
(§5) During the study, the care and use of animals were conducted in accordance with the regulations of the Association for Assessment and Accreditation of Laboratory Animal Care (AAALAC). After tumor cell inoculation, the animals were checked daily for morbidity and mortality. At the time of routine monitoring, the animals were checked for any effects of tumor growth and treatments on normal behavior such as mobility, visual estimation of food and water consumption, body weight gain/loss, eye/hair matting and any other abnormal effect.
(§6) After tumor volume reached 3000 mm^3 or average tumor volume reached 2000 mm^3, before experimental animals emaciated or coma, anesthesia and euthanasia will be performed. During the experiment, if the weight loss of experimental animal reaches 20%, administration will be discontinued and experimental animals will be observed until the weight returned to 10% range before restart of the administration. In this experiment, when the mean tumor volume reached 2000 mm^3 or at the end of 59 days after the administration, experimental animals will be anesthesiaed to collect tumor mass which will be weighed and photographed.
(§7) • 8.1 Tumor size was measured twice weekly in two dimensions using a caliper, and the volume was expressed in mm^3 using the formula: V=0.5 a×b^2 where a and b are the long and short diameters of the tumor, respectively. • 8.2 T/C, percent value, T and C were the mean volume of the treated and control groups, respectively, on a given day. • 8.3 T−C, calculated with T as the time (in days) required for the mean tumor size of the treatment group to reach a predetermined size, and C was the time (in days) for the mean tumor size of the control group to reach the same size. • 8.4 (1−((Td−T0)/(Cd−C0)))×100% value (in percent) was an indication of antitumor effectiveness, Td and Cd were the mean tumor volumes of the treated and vehicle control animals on a given day and T0 and C0 were the mean tumor volumes of the treated and vehicle control animals at the start of the experiment. • 8.5 Tumor mass weight was measured at the end of study. 9. Statistical Analysis
(§8) A one-way analysis of variance was performed followed by multiple comparison procedures. […]

[5] = tested on: NCI-H2122 lung cancer xenograft; format: in vivo, BALB/c nude mice
Protocol: as §1, §2, §3, §4, §5, §6, §7, §8

[6] = tested on: BXPC-3 human pancreatic carcinoma xenograft; test: BXPC-3 xenograft tumor model, subcutaneous; format: in vivo, BALB/c nude mice
Protocol: as §7
A one-way analysis of variance was performed followed by multiple comparison procedures. All data was analyzed using SPSS 18.0. *p<0.05 or **P<0.01 are generally considered statistically significant when compared with vehicle group.
BXPC-3 tumor cells cultured in RMPI1640 medium supplemented with 10% heat inactivated fetal bovine serum, all cells used EDTA containing trypsin, passaged twice a week, incubated at 37° C. in an atmosphere of 5% CO2 in air and cultured.
BALB/c nude mice, female, 6-8 weeks old, 18-22 g in body weight, were purchased from Shanghai Laboratory Animal Center (SLAC, Shanghai, China).
Each mouse was inoculated subcutaneously at the right flank region with BXPC-3 tumor cells (5×10^7) in 0.1 ml of phosphate-buffered saline with matrigel via a 1 ml syringe for tumor development. The treatments were started when the mean tumor size reaches approximately 200 (150-250) mm^3 at 9 days after inoculation.
Randomized grouping, observations, aseptic, data processing, measurement and statistical analysis are as described in Example 3.

SMILES: CC1=C2C(=O)[C@H]3[C@@H](CC=C4C[C@@H](O)CC[C@@]43C)[C@@H]2CC[C@]12O[C@@H]1C[C@H](C)CN[C@H]1[C@H]2C [jervine]
- F (bioavailability) [1]: 41.2%
- mortality ([2]; 50 mg/kg oral): no animal dead
- general condition of the mice ([2]; 80 mg/kg oral gavage): all mice were in good condition
- weight loss ([2]; 80 mg/kg oral gavage): no significant weight loss
- mortality ([2]; 80 mg/kg oral): no animal die
- mortality ([2]; 80 mg/kg oral, listed as Jervine): no animal dead
- mortality ([2]; 150 mg/kg oral): Two mice in the 150 mg/kg treatment group were dead
- IC50 [3]: 50 nM
- T/C value ([4]; A431, 40 mg/kg p.o. QD × 21 days): 0.52
- T/C value ([4]; A431, 60 mg/kg p.o. QD × 21 days): 0.80
- T/C value ([4]; A431, 80 mg/kg p.o. QD × 21 days): 0.82
- T/C value ([5]; NCI-H2122, 40 mg/kg p.o. QD × 21 days): 0.79
- T/C value ([5]; NCI-H2122, 60 mg/kg p.o. QD × 21 days): 0.701
- T/C value ([5]; NCI-H2122, 80 mg/kg p.o. QD × 21 days): 0.594
- T/C value ([6]; BXPC-3, 20 mg/kg iv QD × 21 days): 25.8%
- T/C value ([6]; BXPC-3, 40 mg/kg iv QD × 21 days): 59.1%
- T/C value ([6]; BXPC-3, 80 mg/kg iv QD × 21 days): 54.2%
- tumor growth inhibition (in words) ([6]; BXPC-3 xenograft): significantly inhibit the growth of these three tumors; also recorded: effectively inhibit the tumor growth
- side effects / weight loss of the mice ([6]; BXPC-3 xenograft, during administration): no obvious side effects such as weight lose was observed; also recorded: no significant of weight lose
